# Measurements reported in patent US12605351B2, “Method for producing a composition comprising a 3-O-p-coumaroyl ester of tormentic acid from a plant cell culture, applications thereof as antiparasitic agent for the treatment of trypanosomiasis” (LUXEMBOURG INSTITUTE OF SCIENCE AND TECHNOLOGY, priority 2019, dated 2026).
# Assays:
# [1] = system: Trypanosoma brucei brucei; conditions: review Isah et al. 2016; cited from earlier work
# [2] = system: Trypanosoma cruzi; conditions: review Isah et al. 2016; cited from earlier work
# [3] = system: MCR-5 cells; conditions: cited from earlier work
# [4] = system: Trypanosoma brucei brucei bloodstream forms (strain 427); experiment: In vitro antitrypanosomal activity on Tbb BSF; assay type: cell-based
# Method: Antiparasitic activities were evaluated in vitro on Trypanosoma brucei brucei bloodstream forms (strain 427) (Tbb BSF). Tbb BSF were cultured in vitro at 37° C. with 5% CO2 in HMI9 medium containing 10% heat-inactivated fetal bovine serum, […] ([…]) and L-cysteine ([…]).
# (§1) In vitro tests were performed as previously described by Hoet S. et al. (Planta Med., 2004, 70, 407-413, doi:10.1055/s-2004-818967). Suramine (a commercial anti-trypanosomal drug) and camptothecin were used as positive controls. Stock solutions of compounds to be tested were prepared at a concentration of 10 mg/mL in DMSO. The solutions were further diluted in medium (described in 1.1) to give 0.1 mg/mL stock solutions. Extracts and compounds were tested in eight serial three-fold dilutions (final concentration range: 50-0.02 mg/L) in 96-well microliter plates. All tests were performed at least in duplicate.
# [5] = system: Human normal fibroblast cell line (WI-38); experiment: cells; assay type: cell-based; conditions: cytotoxicity, WI-38 human fibroblasts, Table 3
# Method: The cytotoxicity of tested compounds was evaluated in parallel on a Human normal fibroblast cell line (WI-38) cultivated in a humidified atmosphere with 5% CO2 at 37° C. Human normal fibroblast cell line (WI-38) was cultivated in DMEM medium (Life Technologies) containing 4 mM L-glutamine, 1 mM sodium pyruvate supplemented with 10% fetal bovine serum (Sigma) and penicillin-streptomycin (100 UI/mL).
# as §1, with “Suramine” for “In vitro tests were performed as previously described by Hoet S. et al. (Planta Med., 2004, 70, 407-413, doi:10.1055/s-2004-818967). Suramine”
# [6] = In vivo acute toxicity test (highest tolerated dose); design: species or system NMRI mice; conditions: mice; for acute toxicity: intraperitoneally every 2 hours, 10-15-25-50 mg/kg, monitored 48 h
# From the text: (§2) NMRI mice (6-8 weeks of age) obtained from Envigo Laboratories (The Netherlands) were used. All in vivo experiments performed were approved by the Ethical Committee for animals use at the Health Sciences Sector of the Catholic University of Louvain (2017/UCL/MD/017).
# The assessment of the highest tolerated dose was based on a DNDi protocol by Loset J.-R. et al. (V. Drug Screening for Kinetoplastids Diseases. A Training Manual for Screening in Neglected Diseases-DNDi, 2009) and adapted by Beaufay C. et al. (Malar J., 2017, 16, doi:10.1186/s12936-017-2054-y). Briefly, 3-O-cis/trans-p-coumaroyltormentic acid isolated from fractions F-F9 obtained from a callus of Malus domestica Cox cultivar of example 1 above was given intraperitoneally every 2 hours to 2 mice using increasing doses: 10-15-25-50 mg/kg from stock solutions of 10 mg/mL. Mice were controlled for any health problem symptoms or behavioral changes and monitored for weight and hematocrit after each injection and every day during 48 h after administration. Main organs (heart, liver, spleen, lung and kidney) of treated mice were observed and weighed wet during autopsy. Control group received the vehicle, distilled water with 10% of tween 80-ethanol (7:3). The total injected dose was finally recorded and will ensure the non-toxicity of in vivo anti-trypanosomal test.
# [7] = system: Trypanosoma brucei brucei; experiment: In vivo anti-trypanosomal activity in infected mice; design: species or system NMRI mice; conditions: for survival of infected mice in comparison to the untreated group: 50 mg/kg/d i.p. day 3-7 post-infection, followed to day 19
# From the text: as §2
# Mice were randomly divided into 6 mice per group for 3-O-cis/trans-p-coumaroyltormentic acid (mixture of cis and trans) and ursolic acid, 4 for positive control (Suramine) and 7 for the negative control, and were infested intraperitoneally with 10^4 Trypanosoma brucei brucei. All compounds were solubilized in the vehicle (water-tween 80-ethanol) and administered intraperitoneally. 3-O-cis/trans-p-coumaroyltormentic acid or ursolic acid (UA) were administered at 50 mg/kg at day 3 after infection with the parasite and then every day until day 7 post-infection. Suramine (0.5 mg/kg) was administered while vehicle was used as a negative control. From day 3 post infection, a drop of blood collected each day from mouse-tail was used to count parasitemia.
# [8] = listed as 3-O-p-coumaroyl ester of tormentic acid
Substance,IC50 against Trypanosoma brucei brucei [1],IC50 against Trypanosoma cruzi [2],cytotoxicity IC50 on MCR-5 cells [3],"Tbb (IC50 μg/mL) ([4]; Tbb bloodstream forms strain 427, Table 3)","IC50 ([4]; Tbb bloodstream forms strain 427, Table 3, read-out: Tbb (IC50 μM))","anti-trypanosomal activity, times higher than that of tormentic acid ([4]; in vitro, versus tormentic acid)",WI38 (IC50 μg/mL) [5],IC50 ([5]; read-out: WI38 (IC50 μM)),"total cumulative highest tolerated dose ([6]; intraperitoneal, repeated injections)",acute toxicity [6],"acute toxicity [6, 8]","survival of infected mice in comparison to the untreated group [7, 8]",survival of infected mice in comparison to the untreated group ([7]; listed as esters),"parasitemia ([7]; day 4 post-infection, 50 mg/kg/day intraperitoneally, 10^4 Tbb/mouse)","survival increase ([7]; day 12 post-infection, 50 mg/kg i.p. day 3-7)"
tingenin,< 0.25 µg/mL,< 0.25 µg/mL,0.45 µg/mL,–,–,–,–,–,–,–,–,–,–,–,–
"3β-trans/cis-p-coumaroyl-2α,19α-dihydroxy-urs-12-en-28-oic acid [3-O-cis/trans-p-coumaroyltormentic acid]",–,–,–,0.48 ± 0.36 µg/mL,0.75 ± 0.57 µM,10 times,28.43 ± 0.79 µg/mL,44.8 ± 1.25 µM,100 mg/kg,no acute toxic symptom,no acute toxicity,significant increase,significantly improved,significant decrease,33.3%
